{"source": "patent US11254654B2", "about": "“Heterochromatin gene repression inhibitors” (The University of North Carolina at Chapel Hill, priority 2017, dated 2022)", "key": {"[1]": {"tested_on": "TC1 ES cells", "assay": "Whole cell histone modification levels, Western blot densitometry", "assay_type": "cell-based", "conditions": "48 hrs with compound, normalized over total Histone H4", "protocol": "The ability to reduce global H3K9-me2 and -me3 levels with the novel HP1 inhibitors was previously examined (see FIG. 20). […] Oct4-GFP will be measured by flow cytometry, H3K9me3 enrichment by ChIP, and DNA methylation levels by bisulfite sequencing at 2, 4, and 6 days post RA addition output measurements. Expression and chromatin modifications will also be examined at other RA regulated genes such as […] using GAPDH as a control.\nReferring to FIG. 20, TC1 ES cells were incubated 48 hrs with compound. Histones marks were measured by Western blot densitometry with the indicated antibody. The results were normalized over the total Histone H4 as a percentage of untreated controls."}, "[2]": {"target": "T1, G9a (Homo sapiens, UniProt Q96KQ7)", "T1 sequence (Q96KQ7 1-1210)": "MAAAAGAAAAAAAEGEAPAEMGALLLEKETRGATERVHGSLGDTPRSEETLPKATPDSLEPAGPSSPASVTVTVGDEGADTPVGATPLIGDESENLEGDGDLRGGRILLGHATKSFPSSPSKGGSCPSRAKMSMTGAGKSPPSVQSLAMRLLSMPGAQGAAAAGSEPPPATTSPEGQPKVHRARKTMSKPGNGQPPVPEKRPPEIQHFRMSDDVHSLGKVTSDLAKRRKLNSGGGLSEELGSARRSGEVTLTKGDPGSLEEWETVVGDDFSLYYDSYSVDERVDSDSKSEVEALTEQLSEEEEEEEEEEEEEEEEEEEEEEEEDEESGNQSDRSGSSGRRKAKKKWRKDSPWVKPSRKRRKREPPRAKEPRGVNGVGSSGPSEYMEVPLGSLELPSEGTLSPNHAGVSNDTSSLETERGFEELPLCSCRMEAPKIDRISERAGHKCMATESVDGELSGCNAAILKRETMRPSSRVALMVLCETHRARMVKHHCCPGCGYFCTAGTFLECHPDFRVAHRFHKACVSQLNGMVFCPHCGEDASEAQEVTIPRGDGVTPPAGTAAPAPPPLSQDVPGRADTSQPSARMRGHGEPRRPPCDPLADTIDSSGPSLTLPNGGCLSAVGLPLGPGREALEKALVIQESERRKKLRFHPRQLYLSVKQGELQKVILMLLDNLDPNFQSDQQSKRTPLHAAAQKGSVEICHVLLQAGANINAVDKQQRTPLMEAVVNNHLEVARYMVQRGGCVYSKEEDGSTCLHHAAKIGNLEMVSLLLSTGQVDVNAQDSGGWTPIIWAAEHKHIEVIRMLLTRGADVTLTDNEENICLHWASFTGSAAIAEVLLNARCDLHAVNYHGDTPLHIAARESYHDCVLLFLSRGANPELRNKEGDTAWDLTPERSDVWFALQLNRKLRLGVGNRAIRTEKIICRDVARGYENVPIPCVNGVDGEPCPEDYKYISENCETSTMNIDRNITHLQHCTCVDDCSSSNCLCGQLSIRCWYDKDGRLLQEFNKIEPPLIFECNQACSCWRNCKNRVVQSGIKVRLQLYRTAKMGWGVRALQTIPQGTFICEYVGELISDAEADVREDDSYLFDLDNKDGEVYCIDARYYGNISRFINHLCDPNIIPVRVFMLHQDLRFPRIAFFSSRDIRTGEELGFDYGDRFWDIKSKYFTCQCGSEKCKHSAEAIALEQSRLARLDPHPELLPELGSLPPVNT", "assay": "In vitro activity against G9a", "assay_type": "biochemical", "conditions": "data not shown"}}, "note": "Where a name gives a salt, the structure may show the parent alone."}
{"smiles": "COc1cc2nc(N3CCCC3)nc(N[C@H]3CCCNC3)c2cc1OC", "note": "[compound 1, (S)-6,7-Dimethoxy-N-(Piperidin-3-yl)-2-(Pyrrolidin-1-yl)Quinazolin-4-Amine Trifluoroacetic Acid Salt]", "values": [{"measurement": "Bulk di- and tri-H3K9 methylation", "setting": "[1]", "result": "significantly block"}, {"measurement": "Activity against G9a in vitro", "setting": "[2]", "result": "no detectable activity"}]}
